Read-outs that look alike come from different tables or passages of the source.
Key:
BRD9 = target: T1, BRD9 (Homo sapiens, UniProt Q9H8M2); assay: Western blotting of BRD9 protein levels in U937 cells; assay type: cell-based; settings: for BRD9 protein levels (degradation): different concentrations
T1 construct: WB analysis showing BRD9 protein levels following 48‐hours treatments with compounds 2−8; endogenous in cells; host or cells: U937 (ATCC)
T1 sequence (Q9H8M2 1-597): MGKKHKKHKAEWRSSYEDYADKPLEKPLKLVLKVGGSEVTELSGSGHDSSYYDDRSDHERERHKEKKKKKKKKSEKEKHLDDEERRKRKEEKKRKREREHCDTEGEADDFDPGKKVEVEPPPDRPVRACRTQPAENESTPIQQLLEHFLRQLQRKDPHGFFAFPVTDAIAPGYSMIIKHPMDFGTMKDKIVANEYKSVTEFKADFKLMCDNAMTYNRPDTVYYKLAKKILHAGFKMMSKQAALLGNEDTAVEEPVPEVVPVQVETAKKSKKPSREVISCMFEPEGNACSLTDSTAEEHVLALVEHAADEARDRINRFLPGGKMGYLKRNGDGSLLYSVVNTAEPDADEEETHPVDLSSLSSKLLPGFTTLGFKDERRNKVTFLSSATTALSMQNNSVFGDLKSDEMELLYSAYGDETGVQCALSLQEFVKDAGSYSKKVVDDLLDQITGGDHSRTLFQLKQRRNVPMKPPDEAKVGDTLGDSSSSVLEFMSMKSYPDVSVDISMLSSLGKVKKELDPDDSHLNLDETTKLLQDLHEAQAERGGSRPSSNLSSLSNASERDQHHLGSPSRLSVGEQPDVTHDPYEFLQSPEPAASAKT
Experimental: Cells have been authenticated by STR profiling.
Western blot was performed according to the previous protocol.^[ [71], [72] ^] U937 AML cells were pelleted and then lysed in RIPA buffer (1% Triton X‐100, 0.1% SDS, 150 mM NaCl, 1 mM EDTA pH 8, 10 mM Tris‐HCl pH 8) added with 1% protease inhibitor cocktail. The resulting lysate was subjected to centrifugation for 15 minutes at 4 °C. […] The protein signal was visualized by enhanced chemiluminescence method (ECL) through the Bio‐Rad Chemidoc machine. ImageJ software was used for densitometric analysis.

U937 cells [1] = assay: CCK8 viability assay in U937 cells; assay type: cell-based, human; settings: for U937 cell viability: CCK8, 48 hours treatment
Experimental: (§1) The AML U937 cell line (ATCC) was grown in Roswell Park Memorial Institute (RPMI) 1640 Medium with the addition of 10% fetal bovine serum (FBS), 1% L‐glutamine, and 1% antibiotics (100 U/mL penicillin, 100 µg/mL streptomycin, and 250 ng/mL amphotericin‐B). Cells have been authenticated by STR profiling.
CCK8 was purchased from Elabscience and used according to manufacturer instructions, briefly: 100 µL of cell suspension was added to each well using a 96‐well microplate. Cells were then incubated at 37 °C, in a 5% CO2 incubator for 24 hours. Compounds were added to the cells and incubated for an additional 48 hours at 37 °C. Next, 10 µL of CCK‐8 Buffer was added to each well, and cells were incubated again for 4 hours. Next, 450 nm absorbance was measured using a TECAN microplate reader.

BRD9 (BD1) [2] = target: T2, BRD9 (BD1) (Homo sapiens, UniProt Q9H8M2); set-up: method as in PMID 34823196; settings: previously disclosed; read-out: IC50, affinity for BRD9; cited from earlier work
T2 construct: BSP‐32519
T2 sequence (Q9H8M2 136-240 limits assumed): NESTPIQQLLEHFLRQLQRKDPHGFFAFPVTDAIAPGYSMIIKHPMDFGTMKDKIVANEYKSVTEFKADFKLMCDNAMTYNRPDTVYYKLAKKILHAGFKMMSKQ

BRD9 (BD1) [3] = target: T2, BRD9 (BD1); assay: AlphaScreen assay, BRD9 (BD1) Inhibitor Screening Assay Kit; assay type: binding; settings: for IC50: AlphaScreen, read-out: IC50, BRD9 binding
Experimental: The evaluation of the interaction between synthesized compounds and BRD9 was conducted using AlphaScreen Technology using an Enspire microplate analyzer (Perkin Elmer)^[ [70] ^] and the BRD9 (BD1) Inhibitor Screening Assay Kit (BSP‐32519) as reported by Colarusso et al.^[ [38], [39] ^] IC50 values were calculated by GraphPad Prism10 software.

[4] = Microsomal stability in human liver microsomes (HLMs); assay type: in vitro ADME; settings: LC-MS/MS analysis
Experimental: In our assay we followed the loss of the test compounds over time under CYP‐mediated metabolic pathways. The extent of hepatic metabolism allowed us the determination of different pharmacokinetic parameters such as in vitro t1/2, CLint, in vitro and CLint, in vivo. In vitro t1/2 and CLint, in vitro of test compounds after liver microsomes incubation were calculated according to “well‐stirred” model. In the “well‐stirred” model, the liver is represented by a single compartment, where the unbound concentration of a drug leaving the liver is in equilibrium with the intracellular unbound concentration in the hepatocytes.^[ [53] ^] Predicted CLint, invivo values were determined using human PBSF.^[ [54] ^]
The microsomal stability of compounds 2 and 9 was assessed according to the previously described protocol.^[ [73] ^] […] The supernatants were collected and analyzed by LC‐MS/MS. The extent of metabolism is quantified as a percentage of the parent compound turnover. […] In vitro half‐lives (t1/2) were calculated using the expression t1/2 = 0.693/b, where b is the slope found in the linear fit of the natural logarithm of the fraction remaining of the parent compound versus incubation time. Microsomal intrinsic clearance was calculated as CLint , in vitro = (1000) × (0.693/t1/2)/0.5. […]

Human plasma stability = assay type: in vitro ADME; settings: incubation up to 120 minutes, 37 °C, read-out: compound recovery after incubation with human plasma
Experimental: The plasma stability of compounds 2 and 9 was evaluated. Briefly, the plasma was equilibrated at 37 °C, and biotransformation was initiated by adding the compound solution and mixing. At each specified time point (0, 60, and 120 minutes), test compounds were extracted into 200 µL ice‐cold methanol to stop degradation. Tolbutamide was added during the quenching phase. Finally, the concentration of the test compound was monitored by LC‐MS. The percentage of the test compound remaining at each individual time point was reported. The results are reported as mean ± SD from three independent experiments. Procaine and procainamide were used as controls.

U937 cells [5] = assay: Proliferation assay (trypan blue exclusion cell counting) in U937 cells; assay type: cell-based, human; settings: time-point treatment
Experimental: as §1
Trypan blue exclusion cell counting has been used to trace the number of cells over the different times of analysis.

BRD7 = target: T3, BRD7 (Homo sapiens, UniProt Q9NPI1); assay: Western blotting of BRD7 protein levels in U937 cells; assay type: cell-based; settings: 48 hours treatment, western blot
T3 construct: WB analysis showing BRD9 and BRD7 protein levels following 48‐hours treatment with compound 9; endogenous in cells; host or cells: U937 (ATCC)
T3 sequence (Q9NPI1 1-651): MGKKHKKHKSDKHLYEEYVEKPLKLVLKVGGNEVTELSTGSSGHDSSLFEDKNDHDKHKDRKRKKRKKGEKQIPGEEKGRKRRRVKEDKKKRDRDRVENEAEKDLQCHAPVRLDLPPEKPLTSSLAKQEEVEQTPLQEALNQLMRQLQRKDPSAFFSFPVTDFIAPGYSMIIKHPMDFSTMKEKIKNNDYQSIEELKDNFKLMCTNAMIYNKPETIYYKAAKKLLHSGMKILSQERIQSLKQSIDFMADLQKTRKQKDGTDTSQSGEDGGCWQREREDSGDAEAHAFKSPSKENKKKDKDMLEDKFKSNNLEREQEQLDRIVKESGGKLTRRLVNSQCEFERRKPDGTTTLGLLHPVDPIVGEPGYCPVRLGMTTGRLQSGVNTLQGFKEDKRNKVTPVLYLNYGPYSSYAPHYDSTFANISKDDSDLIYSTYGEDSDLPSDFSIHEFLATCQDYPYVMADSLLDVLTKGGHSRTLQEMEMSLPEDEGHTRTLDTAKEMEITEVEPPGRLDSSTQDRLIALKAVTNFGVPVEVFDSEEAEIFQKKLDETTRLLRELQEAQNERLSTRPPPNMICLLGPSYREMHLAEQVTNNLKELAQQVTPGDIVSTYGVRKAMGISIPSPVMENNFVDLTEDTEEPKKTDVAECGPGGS
Experimental: as §1
Western blot was performed according to the previous protocol.^[ [71], [72] ^] U937 AML cells were pelleted and then lysed in RIPA buffer (1% Triton X‐100, 0.1% SDS, 150 mM NaCl, 1 mM EDTA pH 8, 10 mM Tris‐HCl pH 8) added with 1% protease inhibitor cocktail. The resulting lysate was subjected to centrifugation for 15 minutes at 4 °C. After that, the supernatant was collected and supplemented with 6X Laemmli buffer (0.217 M Tris‐HCl pH 8.0, 52.17% SDS, 17.4% glycerol, 0.026% bromophenol blue, 8.7% beta‐mercapto‐ethanol) and boiled for 3 minutes at 99 °C,25 µg of protein extract were resolved by SDS‐polyacrylamide gel electrophoresis and then transferred on nitrocellulose membrane (Bio‐Rad). The membrane was probed with anti‐BRD9 (Bethyl Laboratories #A303‐781A), anti‐BRD7 (Invitrogen #PA5‐40379), anti‐GADPH (Elabscience # E‐AB‐40337), and anti‐α‐tubulin (Elabscience # E‐AB‐20036). The protein signal was visualized by enhanced chemiluminescence method (ECL) through the Bio‐Rad Chemidoc machine. ImageJ software was used for densitometric analysis. […]

[6] = 48 hours treatment, western blot

Structure (SMILES): CCc1nnc2c(Nc3cccc(NC(C)=O)c3)nc3ccccc3n12 [compound 1]
- BRD9 protein levels (degradation) (BRD9; [6]): only a slight reduction in BRD9 protein levels
- U937 cell viability (U937 cells [1]): minimally affected
- IC50 (BRD9 (BD1) [2]): 4200 ± 1920 nM

Structure (SMILES): CCc1nnc2c(Nc3cccc(NC(=O)CCCCCCOCCOCC(=O)N[C@H](C(=O)N4C[C@H](O)C[C@H]4C(=O)NCc4ccc(-c5scnc5C)cc4)C(C)(C)C)c3)nc3ccccc3n12 [compound 2]
- residual binding of histone H4 (BRD9 (BD1) [3]; 10 µM ligand concentration): 21.6 ± 0.3%
- IC50 (BRD9 (BD1) [3]): 2970 ± 250 nM
- primary metabolites after incubation with HLMs [4]: dealkylation reactions
- U937 cell viability (U937 cells [1]): strong reduction of cell viability
- recovery at 120 min (Human plasma stability): ≥ 90%

Structure (SMILES): CCc1nnc2c(Nc3cccc(NC(=O)CCCCCCNc4cccc5c4C(=O)N(C4CCC(=O)NC4=O)C5=O)c3)nc3ccccc3n12 (stereo not drawn) [compound 4]
- BRD9 protein levels (degradation) (BRD9; [6]): no effect was observed
- U937 cell viability (U937 cells [1]): did not observe variation in cell viability

Structure (SMILES): CCc1nnc2c(Nc3cccc(NC(=O)CCOCCNc4cccc5c4C(=O)N(C4CCC(=O)NC4=O)C5=O)c3)nc3ccccc3n12 (stereo not drawn) [compound 5]
- U937 cell viability (U937 cells [1]): strong reduction of cell viability

Structure (SMILES): CCc1nnc2c(Nc3cccc(NC(=O)CCOCCOCCNc4cccc5c4C(=O)N(C4CCC(=O)NC4=O)C5=O)c3)nc3ccccc3n12 (stereo not drawn) [compound 6]
- BRD9 protein levels (degradation) (BRD9; [6]): no effect was observed
- U937 cell viability (U937 cells [1]): did not observe variation in cell viability

Structure (SMILES): CCc1nnc2c(Nc3cccc(NC(=O)CCOCCOCCOCCNc4cccc5c4C(=O)N(C4CCC(=O)NC4=O)C5=O)c3)nc3ccccc3n12 (stereo not drawn) [compound 7]
- BRD9 protein levels (degradation) (BRD9; [6]): no effect was observed
- U937 cell viability (U937 cells [1]): did not observe variation in cell viability

Structure (SMILES): CCc1nnc2c(Nc3cccc(NC(=O)CCCCCCOCCOCC(=O)Nc4cccc5c4C(=O)N(C4CCC(=O)NC4=O)C5=O)c3)nc3ccccc3n12 (stereo not drawn) [compound 8]
- BRD9 protein levels (degradation) (BRD9; [6]): no effect was observed
- U937 cell viability (U937 cells [1]): did not observe variation in cell viability

Structure (SMILES): CCCCc1nnc2c(Nc3cccc(NC(=O)CCCCCCOCCOCC(=O)N[C@H](C(=O)N4C[C@H](O)C[C@H]4C(=O)NCc4ccc(-c5scnc5C)cc4)C(C)(C)C)c3)nc3ccccc3n12 [compound 9]
- IC50 (BRD9 (BD1) [3]): 660 ± 40 nM
- fold higher binding affinity to BRD9 compared to degrader 2 (BRD9 (BD1) [3]; compared to compound 2): 4.5 fold
- primary metabolites after incubation with HLMs [4]: dealkylation reactions
- AML cell proliferation (U937 cells [5]): negatively affected AML cell proliferation
- BRD9 protein levels with proteasome inhibitor MG132 (BRD9; 48 hours treatment with or without MG132 (25 µM for 6 hours)): MG132 treatment rescued BRD9 depletion
- concentration at which BRD9 degradation is effectively induced (BRD9; [6]): 1 µM
- BRD7 protein levels (BRD7): not interfering with BRD7 protein levels
- U937 cell viability (U937 cells [1]): significantly impaired leukemic cell viability
- ability to reduce leukemic cell viability and AML cell proliferation compared with dBRD9 (U937 cells [1]; U937 cells, versus reference dBRD9): superior ability to reduce leukemic cell viability and AML cell proliferation
- recovery at 120 min (Human plasma stability): ≥ 90%

Reference: article PMC12172596, “Unveiling New Triazoloquinoxaline‐Based PROTACs Designed for the Selective Degradation of the ncBAF Chromatin Remodeling Subunit BRD9” (Chemistry (Weinheim an Der Bergstrasse, Germany), 2025)
